Reference: patent US20260258000A1, “THYMIDYLATE SYNTHASE INHIBITORS AND USES THEREOF” (University of Florida Research Foundation, Incorporated, priority 2021, published 2026)

Experiments:
PANC-1 cells = experiment: Cell viability (MTS) assay, PANC-1; format: cell-based; conditions: Homo sapiens; PANC-1, 72 hour drug incubation (FIG. 1C)
Procedure: To prepare lysates, 0.5×10^6 PA NC-1 cells were seeded in 100 mm dishes in 10 ml DMEM High glucose and 24 hours later, 5-FU (Sigma) or 19-S were added at the specified concentrations. Cells were harvested after 72 hours and cell pellets were stored at −80° C. For GI50 determination, 3000 MIA PaCa-2 cells. […] After 72 hours, cell viability was assessed by reduction of MTS ((3-4,5-dimethylthiazol-2-yl)-5-(3-carboxymethoxyphenol)-2-(4-sulfophenyl)-2H-tetrazolium) using Cell Titer 96 R Aqueous One Solution Cell Proliferation Assay Kit (Promega), following manufacturer's recommendations. Chemiluminescent output (integration time 1000 ms) was measured on a SpectraMax M3® (Molecular devices). Data were normalized to max/minutes and plotted in GraphPad Prism for GI50 determination. Chemical synthesis details, including characterization of each compound, can be found in the supporting information document associated with this publication.

[1] = system: Luc-PANC-1 xenograft tumors; experiment: Luc-PANC-1 subcutaneous xenograft tumor model; format: in vivo, NSG mice; conditions: for median survival: control 54 days
Procedure: Luc-PANC-1 (5×106) and Luc-CM (0.5×106) cells were resuspended in 200 ul of PBS and injected subcutaneously (SQ) or intraperitonially (IP) to 6-8-week-old NSG mice respectively. Tumor bearing mice were imaged using Xenogen IVIS® Lumina Bioluminescence Imaging System (Perkin Elmer) every week after cell injection. At 4 weeks, animals were randomized based on slope of luciferase signal and treatment was initiated. […] For all animals body weight was recorded weekly and Luc-PANC-1 tumor volume was measured weekly with a caliper. For scheduled sacrifice experiments, animals were euthanized after 4 weeks of treatment. […] Harvested tumors were excised and weighted, and fixed in alcoholic formalin (67.5% Ethanol, 10% Formaldehyde 37%, 22.5% water) for pathology analysis. Tumor volume was calculated as [volume=0.52 (length×width2)].
From this stock, the exact volume needed for daily in vivo delivery was then formulated into 95% corn oil (Mazola) at 2 different concentrations: 1.25 mg/mi (formulation 1) and 3.125 mg/ml (formulation 2). To determine the volume of solution administered to the mice, 200 μl (maximum volume to be delivered in mice via IP or oral gavage) was divided by 25 g of mouse body weight. Therefore, 8 μl of formulation 1 or 2 multiplied by the weight of the mice were used to reach a dose of 10 or 25 mg/kg of body weight, respectively.
Prior to bioluminescence imaging the region where tumors were located was shaved. Mice were then anesthetized with 2.5% isoflurane in 02 then administered the D-luciferin substrate (150 mg/kg in PBS) by IP injection. Following the injection of the D-luciferin substrate mice were imaged using the Xenogen IVIS® Lumina Bioluminescence Imaging System (Perkin Elmer). The peak of luciferase photon flux was recorded 6 minutes after injection of the D-luciferin substrate. The total photon flux was analyzed and restricted to tumor ROI (region of interest) using Living Image v2.60.1 software (Imaging Systems).

[2] = Maximum tolerated dose (MTD) study; format: in vivo
From the text: After 3 treatment cycles, animals rested (no treatment) for one more week before euthanasia. Body weight and physical status of all mice were closely monitored. Tissues were collected and fixed in alcoholic formalin to test for toxicity.

human TS = target: T1, human TS (Homo sapiens, UniProt P04818); experiment: Competitive drug displacement assay (tritium TS assay); format: biochemical; conditions: TS pre-incubated with drug
T1 construct: 6xHis (N); made in house; host or cells: E. coli BL21 (DE3)
T1 sequence (P04818 whole entry): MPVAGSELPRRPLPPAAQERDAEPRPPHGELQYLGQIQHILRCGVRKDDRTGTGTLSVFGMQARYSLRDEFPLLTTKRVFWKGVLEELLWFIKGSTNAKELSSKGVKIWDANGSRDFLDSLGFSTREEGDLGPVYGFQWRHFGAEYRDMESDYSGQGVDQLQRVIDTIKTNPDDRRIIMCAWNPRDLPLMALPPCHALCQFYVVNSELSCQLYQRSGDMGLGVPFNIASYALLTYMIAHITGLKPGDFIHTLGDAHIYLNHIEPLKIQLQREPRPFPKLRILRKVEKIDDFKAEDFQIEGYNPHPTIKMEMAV
Procedure: For these experiments the TS protein was first incubated with each drug, the reaction was then initiated by addition of 5,10-mTHF and dUMP using different concentrations of either 5,10-mTHF or dUMP to change the substrate:drug ratio. If there was competition between one of the substrates and the drug for the same binding site, increasing the substrate concentration will displace more of the pre-bound drug and shift the equilibrium towards the enzyme: substrate complex, thus allowing the conversion of dUMP to proceed (FIG. 5A).
The competitive drug displacement assay utilized the standard reaction conditions for the tritium based TS catalytic activity assay including 40 μM dUMP (Sigma Aldrich, D3876) with the [5-3H]dUMP tracer (ViTrax, VT122) accounting for 0.06% of the final dUMP concentration and 100 μM 5,10-methylene tetrahydrofolate (defined as 1× dUMP and 1×5,10-mTHF). Concentrations of total dUMP and 5,10-mTHF were then changed relative to these 1× concentrations to concisely indicate the changes in either the substrate or cofactor concentration. […] The remaining components in each 200 μL reaction were consistent in all reactions and included 2 μg of purified human TS in 50 mM KH2PO4 (Sigma Aldrich, P0662) and 100 mM β-mercaptoethanol (Sigma Aldrich, M7522).

SMILES: CCc1nc(N)nc(N)c1-c1ccc(N(C)Cc2ccccc2)c([N+](=O)[O-])c1 [Compound 19-S]
- GI50 (PANC-1 cells): 8.35 µM
- median survival ([1]; 10 mg/kg PO until survival endpoint): 68 days
- body weight ([1]; 25 mg/kg IP, 4 cycles, vs vehicle): no significant deviations
- final tumor mass ([1]; 25 mg/kg IP, 4 cycles, p=0.0029 vs vehicle): significantly reduced
- tumor progression (bioluminescence photon flux, tumor volume) ([1]; 25 mg/kg IP, 5 days on/2 days rest, 4 cycles, p=0.0023 flux, p<0.0001 volume vs vehicle): inhibited tumor progression
- median survival ([1]; 25 mg/kg PO until survival endpoint): 84 days
- adverse effects / body weight ([1]; 25 mg/kg oral gavage, 4 cycles): did not show adverse effects or declines in body weight
- tumor progression (photon flux, tumor volume, excised tumor mass) ([1]; 25 mg/kg oral gavage, 4 cycles (FIGS. 7A-7H)): inhibited tumor progression
- survival compared to vehicle control ([1]; 10 or 25 mg/kg PO (either dose), Kaplan-Meier): statistically significant (p=0.0027) prolonged survival
- total flux (bioluminescence) ([1]; 10 or 25 mg/kg PO, at 6 weeks after cell injection, vs vehicle): significant reduction of total flux
- tumor volume ([1]; 10 or 25 mg/kg PO, p=0.0079, maintained till endpoint): significant inhibition of tumor volume
- body weight ([1]; 10 or 25 mg/kg PO, survival study, vs vehicle): no significant differences
- mortality ([2]; 50 mg/kg IP, n=3 (FIG. 10B)): found dead after 12th, 13th and 14th dose
- mortality ([2]; 50 mg/kg IP, n=3 (FIG. 10C)): 2 were found dead after 1st dose and one animal reached endpoint
- mortality ([2]; 100 mg/kg IP, n=2 (FIG. 10B)): found dead after 1st and 3rd dose
- mortality ([2]; 100 mg/kg IP, n=3 (FIG. 10C)): found dead after 1st dose
- MTD at 3 treatment cycles of 5 consecutive daily doses ([2]; mouse, in vivo, IP, NSG mice, read-out: maximum tolerated dosage (MTD)): 25 mg/kg
- dUMP conversion with increasing 5,10-mTHF concentration (drug displacement) (human TS; 5,10-mTHF up to 5×): increased the amount of dUMP conversion
- dUMP conversion with increasing dUMP concentration (drug displacement) (human TS; dUMP up to 5×): the amount of dUMP conversion did not increase
